Results on 17 compounds are retold here after patent US9273040B2 (Merck Sharp & Dohme Corp., priority 2011, dated 2016).

Holding throughout (format): cell-based
Experiment [1] addresses T1, human Nav1.5 channels stably expressed in HEK 293 cells (Homo sapiens, UniProt Q14524).
T1 construct: expressed in transfected cells
Put plainly: IonWorks Quattro automated patch-clamp, sodium current, inactivated state block. As to conditions: selectivity over Nav1.5. Here is the method: (§1) Compounds were tested on human Nav1.7 and Nav1.5 channels stably expressed in HEK 293 cells. […] Cells were sealed on a planar substrate using the Population Patch Plate (PPC) technology. Electrical access was obtained using both nystatin and amphotericin. A double-pulse protocol was used for the determination of IC50 values for inactivated state block. Nav1.7 and Nav1.5 expressing cells were voltage clamped at −100 mV and −110 mV, respectively. A depolarizing prepulse to −10 mV (Nav1.7) or −30 mV (Nav1.5) for 1000 ms followed by a 10 ms repolarization to −100 mV (Nav1.7) or −110 mV (Nav1.5) was given to generate fractional channel inactivation of ˜50%, followed by a 10 ms test pulse to −10 mV (Nav1.7) or −30 mV (Nav1.5) to measure peak current in control conditions and after compound addition. The following recording solutions were used (mM). External: 150 NaCl, 2 CaCl2, 5 KCl, 1 Mg Cl2, 10 HEPES, 12 Dextrose; internal: 120 CsF, 30 CsCl, 10 EGTA, 5 HEPES, 5 NaF, 2 MgCl2.
(§2) For all electrophysiology experiments, offline analysis was used to correct for current rundown and to determine percent inhibition as a function of drug concentration. IC50 values were determined by fitting to the Hill equation.
(In general: Patch clamp records ionic current or voltage across a cell membrane.)

The target of experiment [2] is T2, human Nav1.7 channels stably expressed in HEK 293 cells (Homo sapiens, UniProt Q15858).
T2 construct: expressed in transfected cells
The experiment is described as above. As to conditions: read-out: potency for the Nav 1.7 sodium ion channel (as measured by IonWorks). Here is the method:
as §1, §2

Experiment [3] concerns the target T1, human Nav1.5 channels stably expressed in HEK 293 cells. Put plainly: PatchXpress 7000 automated patch-clamp, sodium current. To be noted: selectivity over Nav1.5. The method, boiled down: (§3)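 IC50 values came from Hill-equation fits of rundown-corrected inhibition. PatchXpress recordings at 22° C held cells 20 mV negative to V0.5 inact and applied 10 Hz trains of 30 ms steps to −20 mV (Nav1.7) or an 8000 ms prepulse 7 mV positive to V0.5 inact. […]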

For experiment [4], the target named is T2, human Nav1.7 channels stably expressed in HEK 293 cells. The experiment is described as above. To be noted: 22° C., read-out: potency for the Nav 1.7 sodium ion channel (as measured by PatchXpress). The procedure, abridged: as §3

T2 sequence (Q15858 whole entry): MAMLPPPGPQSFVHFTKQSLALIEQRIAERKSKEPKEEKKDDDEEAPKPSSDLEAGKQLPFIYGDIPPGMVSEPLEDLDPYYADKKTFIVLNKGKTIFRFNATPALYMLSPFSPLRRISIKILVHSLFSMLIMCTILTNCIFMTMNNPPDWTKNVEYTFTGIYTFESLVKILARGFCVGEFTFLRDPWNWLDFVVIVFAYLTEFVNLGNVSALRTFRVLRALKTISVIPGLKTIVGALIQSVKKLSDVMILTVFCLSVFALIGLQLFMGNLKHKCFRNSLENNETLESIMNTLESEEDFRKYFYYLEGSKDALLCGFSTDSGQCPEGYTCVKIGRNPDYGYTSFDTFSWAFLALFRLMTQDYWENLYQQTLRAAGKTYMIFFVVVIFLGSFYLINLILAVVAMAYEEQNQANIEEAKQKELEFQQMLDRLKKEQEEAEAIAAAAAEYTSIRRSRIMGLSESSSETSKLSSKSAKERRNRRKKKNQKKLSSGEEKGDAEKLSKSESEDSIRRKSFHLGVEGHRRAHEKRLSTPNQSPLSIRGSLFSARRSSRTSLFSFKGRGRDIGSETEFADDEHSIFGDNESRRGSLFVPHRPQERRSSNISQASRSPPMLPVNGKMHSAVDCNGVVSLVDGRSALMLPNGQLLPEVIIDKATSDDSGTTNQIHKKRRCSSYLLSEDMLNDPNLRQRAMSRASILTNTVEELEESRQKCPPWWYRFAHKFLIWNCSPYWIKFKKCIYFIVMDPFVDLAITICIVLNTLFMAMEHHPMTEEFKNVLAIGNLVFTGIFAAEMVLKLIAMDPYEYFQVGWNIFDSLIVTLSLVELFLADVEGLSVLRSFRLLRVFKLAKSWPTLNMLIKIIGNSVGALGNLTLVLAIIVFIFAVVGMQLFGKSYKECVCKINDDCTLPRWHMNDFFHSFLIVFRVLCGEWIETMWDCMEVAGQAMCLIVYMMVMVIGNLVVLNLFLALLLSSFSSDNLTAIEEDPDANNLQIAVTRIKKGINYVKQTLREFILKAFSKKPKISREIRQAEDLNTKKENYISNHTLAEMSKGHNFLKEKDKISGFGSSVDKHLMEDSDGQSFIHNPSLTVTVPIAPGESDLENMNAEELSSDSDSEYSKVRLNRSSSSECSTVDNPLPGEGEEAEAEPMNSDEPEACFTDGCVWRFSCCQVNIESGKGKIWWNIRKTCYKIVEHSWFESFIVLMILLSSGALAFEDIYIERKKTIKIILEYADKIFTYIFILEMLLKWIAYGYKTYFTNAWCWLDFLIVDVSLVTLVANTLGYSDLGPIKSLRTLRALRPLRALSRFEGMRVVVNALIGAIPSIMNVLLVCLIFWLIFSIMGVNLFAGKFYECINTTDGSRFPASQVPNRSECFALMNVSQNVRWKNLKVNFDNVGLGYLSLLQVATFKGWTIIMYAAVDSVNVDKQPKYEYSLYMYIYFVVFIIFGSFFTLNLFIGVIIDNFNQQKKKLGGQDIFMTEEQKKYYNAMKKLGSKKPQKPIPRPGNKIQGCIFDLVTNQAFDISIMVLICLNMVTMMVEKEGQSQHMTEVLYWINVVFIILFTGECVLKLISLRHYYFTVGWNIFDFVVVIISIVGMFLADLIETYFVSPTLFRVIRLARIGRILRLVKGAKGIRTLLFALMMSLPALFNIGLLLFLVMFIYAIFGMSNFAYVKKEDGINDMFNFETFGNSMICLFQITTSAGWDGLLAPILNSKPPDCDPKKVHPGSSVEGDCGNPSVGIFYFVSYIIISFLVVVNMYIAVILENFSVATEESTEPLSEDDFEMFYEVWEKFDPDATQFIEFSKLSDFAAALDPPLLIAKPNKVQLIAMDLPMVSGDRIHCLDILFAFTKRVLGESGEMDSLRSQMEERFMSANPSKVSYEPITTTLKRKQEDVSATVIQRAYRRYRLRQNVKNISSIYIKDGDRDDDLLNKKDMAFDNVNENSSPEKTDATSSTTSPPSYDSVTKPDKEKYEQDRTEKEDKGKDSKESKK
T1 sequence (Q14524 whole entry): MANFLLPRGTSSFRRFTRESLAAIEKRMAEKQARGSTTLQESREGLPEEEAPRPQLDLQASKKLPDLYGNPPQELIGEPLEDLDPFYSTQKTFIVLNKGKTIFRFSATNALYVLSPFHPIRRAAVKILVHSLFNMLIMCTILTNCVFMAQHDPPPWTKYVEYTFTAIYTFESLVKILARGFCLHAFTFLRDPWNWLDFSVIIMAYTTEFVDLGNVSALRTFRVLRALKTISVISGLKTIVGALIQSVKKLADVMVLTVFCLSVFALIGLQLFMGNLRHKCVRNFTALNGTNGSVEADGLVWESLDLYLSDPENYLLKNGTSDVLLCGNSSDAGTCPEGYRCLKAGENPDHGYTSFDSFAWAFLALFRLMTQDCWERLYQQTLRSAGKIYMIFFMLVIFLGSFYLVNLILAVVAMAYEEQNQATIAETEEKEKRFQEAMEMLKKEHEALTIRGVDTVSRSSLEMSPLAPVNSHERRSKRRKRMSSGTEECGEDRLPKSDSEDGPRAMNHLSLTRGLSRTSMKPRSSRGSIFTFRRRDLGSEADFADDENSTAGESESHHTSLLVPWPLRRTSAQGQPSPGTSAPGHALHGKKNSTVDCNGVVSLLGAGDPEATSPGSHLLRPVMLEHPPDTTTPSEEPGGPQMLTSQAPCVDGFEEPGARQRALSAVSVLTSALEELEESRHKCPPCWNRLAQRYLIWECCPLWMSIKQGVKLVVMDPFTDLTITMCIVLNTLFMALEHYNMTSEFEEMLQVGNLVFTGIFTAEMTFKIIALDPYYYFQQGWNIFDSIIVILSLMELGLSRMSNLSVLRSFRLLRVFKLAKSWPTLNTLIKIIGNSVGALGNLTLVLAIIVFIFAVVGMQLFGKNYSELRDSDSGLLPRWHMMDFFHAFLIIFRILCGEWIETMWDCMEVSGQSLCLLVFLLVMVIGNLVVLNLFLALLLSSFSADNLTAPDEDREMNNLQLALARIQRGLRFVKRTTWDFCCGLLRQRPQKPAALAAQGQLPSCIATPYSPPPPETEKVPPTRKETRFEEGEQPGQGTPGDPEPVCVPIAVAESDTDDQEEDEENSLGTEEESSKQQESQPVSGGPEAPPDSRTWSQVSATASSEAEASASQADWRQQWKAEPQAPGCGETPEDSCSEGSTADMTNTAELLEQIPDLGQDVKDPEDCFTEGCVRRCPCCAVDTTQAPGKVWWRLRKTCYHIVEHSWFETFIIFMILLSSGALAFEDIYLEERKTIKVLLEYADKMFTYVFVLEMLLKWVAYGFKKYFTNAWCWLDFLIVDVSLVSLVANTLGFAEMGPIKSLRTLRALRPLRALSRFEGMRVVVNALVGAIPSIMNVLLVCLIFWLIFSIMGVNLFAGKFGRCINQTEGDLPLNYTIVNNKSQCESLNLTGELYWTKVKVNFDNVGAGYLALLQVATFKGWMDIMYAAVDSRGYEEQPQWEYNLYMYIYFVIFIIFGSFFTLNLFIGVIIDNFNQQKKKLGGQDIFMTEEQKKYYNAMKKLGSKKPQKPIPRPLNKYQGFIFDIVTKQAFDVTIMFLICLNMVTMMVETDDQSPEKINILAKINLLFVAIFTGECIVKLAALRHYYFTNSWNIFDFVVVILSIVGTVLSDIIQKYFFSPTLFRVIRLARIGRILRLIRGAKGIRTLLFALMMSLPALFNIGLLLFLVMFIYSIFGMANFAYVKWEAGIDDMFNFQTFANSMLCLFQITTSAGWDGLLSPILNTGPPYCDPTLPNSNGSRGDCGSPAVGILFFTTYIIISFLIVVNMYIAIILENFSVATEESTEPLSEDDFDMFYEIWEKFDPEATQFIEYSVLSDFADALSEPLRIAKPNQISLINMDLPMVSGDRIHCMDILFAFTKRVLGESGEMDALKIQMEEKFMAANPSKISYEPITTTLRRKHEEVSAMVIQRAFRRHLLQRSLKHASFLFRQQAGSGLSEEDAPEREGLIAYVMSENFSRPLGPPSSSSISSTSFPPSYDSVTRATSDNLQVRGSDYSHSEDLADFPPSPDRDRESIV

For the compound `O=c1oc2cc(S(=O)(=O)Nc3ncns3)ccc2n1Cc1ccccc1` [Compound 1-10, 3-benzyl-2-oxo-N-1,2,4-thiadiazol-5-yl-2,3-dihydro-1,3-benzoxazole-6-sulfonamide], the “ratio of Nav 1.5:Nav 1.7 potency, determined by IonWorks measurement” value (from here on “ratio … by IonWorks measurement”) in experiment [1] is on record as above 41. For the same compound, the figures for the IC50 in experiment [2] and in experiment [4] were 0.803 µM and 0.486 µM, respectively. Further, the “ratio of Nav 1.5:Nav 1.7 potency, determined by PatchXpress measurement” value (from here on “ratio … by PatchXpress measurement”) in experiment [3] is listed as above 62.

In the case of `O=c1oc2cc(S(=O)(=O)Nc3ncns3)ccc2n1Cc1cccc(Cl)c1` [Compound 1-11, 3-(3-chlorobenzyl)-2-oxo-N-1,2,4-thiadiazol-5-yl-2,3-dihydro-1,3-benzoxazole-6-sulfonamide], in experiment [1], the “ratio … by IonWorks measurement” value was determined as 59. Moreover, the IC50 in experiment [2] and in experiment [4] was 0.36 µM in each case. The “ratio … by PatchXpress measurement” value in experiment [3] amounted to 59.

Turning to `O=c1oc2cc(S(=O)(=O)Nc3ncns3)ccc2n1Cc1ccccc1Cl` [Compound 1-12, 3-(2-chlorobenzyl)-2-oxo-N-1,2,4-thiadiazol-5-yl-2,3-dihydro-1,3-benzoxazole-6-sulfonamide], the “ratio … by IonWorks measurement” value in experiment [1] is reported as 67. Besides, the IC50 in experiment [2] and in experiment [4] was 0.408 µM in each case. Further, in experiment [3], the “ratio … by PatchXpress measurement” value is on record as 67.

Consider `O=c1oc2cc(S(=O)(=O)Nc3ncns3)ccc2n1Cc1ccc(Cl)cc1` [Compound 1-13, 3-(4-chlorobenzyl)-2-oxo-N-1,2,4-thiadiazol-5-yl-2,3-dihydro-1,3-benzoxazole-6-sulfonamide], for which, in experiment [1], the “ratio … by IonWorks measurement” value is listed as above 34. For the same compound, the IC50 in experiment [2] and in experiment [4] was 0.976 µM throughout. Besides, in experiment [3], the “ratio … by PatchXpress measurement” value is recorded as above 34.

For `NCc1ccccc1Cn1c(=O)oc2cc(S(=O)(=O)Nc3ncns3)ccc21` [Compound 1-14, 3-[2-(aminomethyl)benzyl]-2-oxo-N-1,2,4-thiadiazol-5-yl-2,3-dihydro-1,3-benzoxazole-6-sulfonamide], in experiment [1], the “ratio … by IonWorks measurement” value is given as above 125. Further, the results for the IC50 in experiment [2] and in experiment [4] were 0.265 µM and 0.365 µM, respectively. The “ratio … by PatchXpress measurement” value in experiment [3] is 45.

With `O=c1oc2cc(S(=O)(=O)Nc3ncns3)ccc2n1Cc1cccc2ccncc12` [Compound 1-17, 3-(isoquinolin-8-ylmethyl)-2-oxo-N-1,2,4-thiadiazol-5-yl-2,3-dihydro-1,3-benzoxazole-6-sulfonamide], the “ratio … by IonWorks measurement” value in experiment [1] is given as 65. The IC50 in experiment [2] was found to be 0.216 µM.

Take `NC/C=C/c1ccccc1Cn1c(=O)oc2cc(S(=O)(=O)Nc3ncns3)ccc21` [Compound 3-3, 3-{2-[(1E)-3-Aminoprop-1-en-1-yl]benzyl}-2-oxo-N-(1,2,4-thiadiazol-5-yl)-2,3-dihydro-1,3-benzoxazole-6-sulfonamide]: the “ratio … by IonWorks measurement” value in experiment [1] worked out at 65. The IC50 was found to be 0.216 µM in experiment [2] and 0.336 µM in experiment [4]. Also, the “ratio … by PatchXpress measurement” value in experiment [3] is above 89.

As for `O=c1oc2cc(S(=O)(=O)Nc3ncns3)ccc2n1Cc1ccccc1-c1cccc2c1CNCC2` [Compound 3-4, 2-oxo-3-[2-(1,2,3,4-tetrahydroisoquinolin-8-yl)benzyl]-N-1,2,4-thiadiazol-5-yl-2,3-dihydro-1,3-benzoxazole-6-sulfonamide], the “ratio … by IonWorks measurement” value in experiment [1] is reported as above 209. The IC50 was 0.158 µM in experiment [2] and 0.11 µM in experiment [4]. Moreover, the “ratio … by PatchXpress measurement” value in experiment [3] is reported as above 272.

As for `O=c1oc2cc(S(=O)(=O)Nc3ncns3)ccc2n1Cc1ccccc1C1=CCNCCC1` [Compound 3-5, 2-oxo-3-[2-(2,5,6,7-tetrahydro-1H-azepin-4-yl)benzyl]-N-1,2,4-thiadiazol-5-yl-2,3-dihydro-1,3-benzoxazole-6-sulfonamide], the “ratio … by IonWorks measurement” value in experiment [1] is given as above 133. The IC50 in experiment [2] worked out at 0.248 µM; in experiment [4], 0.111 µM. Further, the “ratio … by PatchXpress measurement” value in experiment [3] is above 271.

In the case of `O=c1oc2cc(S(=O)(=O)Nc3ncns3)ccc2n1Cc1ccccc1-c1ccccc1N1CCNCC1` [Compound 3-9, 2-oxo-3-[(2′-piperazin-1-ylbiphenyl-2-yl)methyl]-N-1,2,4-thiadiazol-5-yl-2,3-dihydro-1,3-benzoxazole-6-sulfonamide], the “ratio … by IonWorks measurement” value in experiment [1] is recorded as above 59. In experiment [2], the IC50 was 0.563 µM.

Turning to `O=c1oc2cc(S(=O)(=O)Nc3ncns3)ccc2n1Cc1cccc(-c2cccc3c2CNCC3)c1` [Compound 3-13, 2-oxo-3-[3-(1,2,3,4-tetrahydroisoquinolin-8-yl)benzyl]-N-1,2,4-thiadiazol-5-yl-2,3-dihydro-1,3-benzoxazole-6-sulfonamide], the “ratio … by IonWorks measurement” value in experiment [1] is above 83. Further, in experiment [2], the IC50 turned out to be 0.395 µM.

`O=c1oc2cc(S(=O)(=O)Nc3ncns3)ccc2n1Cc1cccc(-c2cccc3c2CCNC3)c1` [Compound 3-14, 2-oxo-3-[3-(1,2,3,4-tetrahydroisoquinolin-5-yl)benzyl]-N-1,2,4-thiadiazol-5-yl-2,3-dihydro-1,3-benzoxazole-6-sulfonamide]: in experiment [1], the “ratio … by IonWorks measurement” value worked out at 35. The IC50 in experiment [2] was determined as 0.43 µM.

Take `O=c1oc2cc(S(=O)(=O)Nc3ncns3)ccc2n1Cc1cccc(C2=CCNCC2)c1` [Compound 3-16, 2-oxo-3-[3-(1,2,3,6-tetrahydropyridin-4-yl)benzyl]-N-1,2,4-thiadiazol-5-yl-2,3-dihydro-1,3-benzoxazole-6-sulfonamide]: in experiment [1], the “ratio … by IonWorks measurement” value is reported as above 43. Besides, in experiment [2], the IC50 amounted to 0.759 µM.

Take `O=c1oc2cc(S(=O)(=O)Nc3ncns3)ccc2n1Cc1cccc(C2=CCNCCC2)c1` [Compound 3-17, 2-oxo-3-[3-(2,5,6,7-tetrahydro-1H-azepin-4-yl)benzyl]-N-1,2,4-thiadiazol-5-yl-2,3-dihydro-1,3-benzoxazole-6-sulfonamide]: in experiment [1], the “ratio … by IonWorks measurement” value was above 40. Further, the IC50 in experiment [2] worked out at 0.827 µM.

In the case of `C[C@@H](c1ccccc1)n1c(=O)oc2cc(S(=O)(=O)Nc3ncns3)ccc21` [Compound 4-8, 2-oxo-3-[(1S)-1-phenylethyl]-N-1,2,4-thiadiazol-5-yl-2,3-dihydro-1,3-benzoxazole-6-sulfonamide], the “ratio … by IonWorks measurement” value in experiment [1] is above 22. For the same compound, the IC50 in experiment [2] is 1.48 µM.

In the case of `O=c1oc2cc(S(=O)(=O)Nc3ncns3)ccc2n1C(c1ccccc1)C1CC1` (centres unmarked) [Compound 4-12, 3-[cyclopropyl(phenyl)methyl]-2-oxo-N-1,2,4-thiadiazol-5-yl-2,3-dihydro-1,3-benzoxazole-6-sulfonamide], the “ratio … by IonWorks measurement” value in experiment [1] is reported as above 32. The IC50 in experiment [2] worked out at 1.04 µM.

For `CC(c1ccccn1)n1c(=O)oc2cc(S(=O)(=O)Nc3ncns3)c(F)cc21` (centres unmarked) [Compound 13-6, 5-fluoro-2-oxo-3-(1-pyridin-2-ylethyl)-N-1,2,4-thiadiazol-5-yl-2,3-dihydro-1,3-benzoxazole-6-sulfonamide], in experiment [1], the “ratio … by IonWorks measurement” value is above 511. In addition, in experiment [2], the IC50 amounted to 0.065 µM.
